Source: article PMC6685669, “Mapping the Structural Path for Allosteric Inhibition of a Short-Form ATP Phosphoribosyltransferase by Histidine” (Biochemistry, 2019)

Experiments:
PaATPPRT [1] = molecular target: T1, PaATPPRT (Psychrobacter arcticus, UniProt Q4FQF7+Q4FTX3); experiment: Rapid kinetics (stopped-flow), approach to steady state in the PaATPPRT reaction; assay type: biochemical
T1 construct: made in house
Experimental: Rapid kinetics experiments were carried out under multiple-turnover conditions by monitoring the increase in absorbance at 290 nm upon PRATP formation at 20 °C in an Applied Photophysics SX-20 stopped-flow spectrophotometer outfitted with a 5 μL mixing cell (0.5 cm path length and 0.9 ms dead time). In all experiments, each syringe contained 100 mM tricine (pH 8.5), 100 mM KCl, 4 mM DTT, 15 mM MgCl2, and 10 μM MtPPase. For the approach to steady state in the PaATPPRT reaction, one syringe carried 38 μM PaATPPRT, 4 mM PRPP, and either 0 or 60 μM histidine, while the other carried 7 mM ATP and either 0 or 60 μM histidine. Reaction was triggered by rapidly mixing 55 μL from each syringe. The increase in absorbance was monitored in a split-time base for 1 s, with 2500 data points collected before 0.2 s and 2500 in the following 0.8 s. At least four traces were acquired for each reaction, and controls lacked PRPP. For initial rates of PaATPPRT and PaHisGS reactions, one syringe carried either 2–4 μM PaHisGS or 4 μM PaATPPRT, 4 mM PRPP, and either 0 or 1.28 mM histidine, while the other carried 11.2 mM ATP. Reaction was triggered by rapidly mixing 55 μL from each syringe. The increase in absorbance was monitored in a linear-time base for 10 s. At least four traces were acquired for each reaction, with 1000 data points collected per trace. Controls lacked PRPP.

PaHisZ = molecular target: T2, PaHisZ (Psychrobacter arcticus, UniProt Q4FTX3); experiment: Differential scanning fluorimetry (DSF), thermal denaturation of PaHisZ; assay type: binding
T2 construct: made in house
T2 sequence (Q4FTX3 whole entry): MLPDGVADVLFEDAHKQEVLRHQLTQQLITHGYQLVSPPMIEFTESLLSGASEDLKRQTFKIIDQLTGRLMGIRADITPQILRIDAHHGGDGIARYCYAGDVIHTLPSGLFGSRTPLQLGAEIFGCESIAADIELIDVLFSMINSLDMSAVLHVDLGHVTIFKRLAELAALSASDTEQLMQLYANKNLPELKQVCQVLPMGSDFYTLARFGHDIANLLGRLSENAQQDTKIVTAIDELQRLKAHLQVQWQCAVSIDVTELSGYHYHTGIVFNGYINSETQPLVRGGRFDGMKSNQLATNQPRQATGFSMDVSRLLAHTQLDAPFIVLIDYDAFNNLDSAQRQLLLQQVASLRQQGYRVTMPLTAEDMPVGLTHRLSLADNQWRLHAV
Experimental: DSF measurements (λex = 490 nm; λem = 610 nm) were performed in 96-well plates on a Stratagene Mx3005p instrument. Thermal denaturation of 9.4 μM PaHisZ was assayed (50 μL) in the presence of several histidine concentrations (0–8 mM) in 100 mM tricine, 100 mM KCl, 4 mM DTT, and 15 mM MgCl2 (pH 8.5). Sypro Orange (5×) (Invitrogen) was added to all wells. Thermal denaturation curves were recorded over a temperature range of 25–65 °C with 1 °C min^–1 increments. Control curves without the enzyme and were subtracted from curves with the enzyme. All measurements were carried out in quintuplicate.
Kinetic and DSF data were analyzed by the nonlinear regression function of SigmaPlot 13 (SPSS Inc.). Data points and error bars in graphs are represented as means ± the standard error, and kinetic and equilibrium constants are presented as means ± the fitting error. Substrate saturation data were fitted to eq 1. Inhibition data at fixed substrate concentrations were fitted to eq 2, and inhibition mechanism data were fitted to eq 3. […]

PaHisGS = tested on: PaHisGS; set-up: method as in PMID 28092443; details: PaHisGS in the absence of PaHisZ; cited from earlier work
PaATPPRT [2] = molecular target: T1, PaATPPRT; experiment: PaATPPRT activity assay, initial rates (absorbance at 290 nm, PRATP formation), inhibition by histidine; assay type: biochemical; details: for Kii: linear regression of intercept replot of individually fitted double-reciprocal curves
Experimental: All assays were performed under initial rate conditions in the forward direction at 20 °C, in the presence or absence of histidine, as previously described[20] by monitoring the increase in absorbance at 290 nm due to the formation of PRATP (ε290 = 3600 M^–1 cm^–1)[23] in 1 cm path length quartz cuvettes (Hellma) in a Shimadzu UV-2600 spectrophotometer. Unless stated otherwise, for PaHisGS activity, the PaHisGS concentration was typically 2 μM, and for PaATPPRT activity, PaHisGS and PaHisZ concentrations were 0.28 and 15 μM, respectively. Reactions were started by addition of PRPP. Control reaction mixtures lacked either ATP, PRPP, PaHisGS, or PaHisZ. […] Initial rates were also measured with saturating concentrations of both substrates in the presence or absence of 4 mM TIH. All kinetic measurements were performed at least in duplicate unless stated otherwise.
The half-maximal inhibitory concentration of histidine was determined by measuring the initial rates for PaATPPRT (0.24 μM) in the presence of 5.6 mM ATP (or 5.6 mM ADP), 2 mM PRPP, and varying concentrations of histidine (0–320 μM). The inhibition mechanism was investigated by measuring the initial rates for PaATPPRT (0.28 μM) at saturating concentrations of one substrate and varying concentrations of the other, either ATP (0.2–2.8 mM) or PRPP (0.1–2.0 mM), with different concentrations of histidine (0–10 μM). In some instances, the lowest-concentration data point was an outlier in the double-reciprocal plot and was excluded from the fit.
Kinetic and DSF data were analyzed by the nonlinear regression function of SigmaPlot 13 (SPSS Inc.). Data points and error bars in graphs are represented as means ± the standard error, and kinetic and equilibrium constants are presented as means ± the fitting error. Substrate saturation data were fitted to eq 1. Inhibition data at fixed substrate concentrations were fitted to eq 2, and inhibition mechanism data were fitted to eq 3. In eqs 1–3, v is the initial rate, S is the concentration of the varying substrate, kcat is the steady-state turnover number, KM is the apparent Michaelis constant, ET is total enzyme concentration, vi is the initial rate in the presence of an inhibitor, IC50 is the half-maximal inhibitory concentration, h is the Hill slope, Kis is the slope inhibition constant, and Kii is the intercept inhibition constant. DSF thermal denaturation data were fitted to eq 4,[30] and PaHisZ–histidine complex equilibrium dissociation data were fitted to eq 5. In eqs 4 and 5, FU is the fraction unfolded, T is the temperature in degrees Celsius, Tm is the melting temperature, c is the slope of the transition region, LL and UL are folded and unfolded baselines, respectively, Tm0 is the Tm in the absence of histidine, Tm∞ is the Tm at an infinite histidine concentration, H is the histidine concentration, and KD is the apparent equilibrium dissociation constant for the PaHisZ–histidine complex.

Y263F-PaATPPRT = molecular target: T3, Y263F-PaATPPRT (Psychrobacter arcticus, UniProt Q4FQF7+Q4FTX3, Y263F); experiment: Y263F-PaHisZ-based PaATPPRT activity assay, initial rates with and without histidine; assay type: biochemical
T3 construct: made in house
T3 sequence (Q4FQF7 whole entry): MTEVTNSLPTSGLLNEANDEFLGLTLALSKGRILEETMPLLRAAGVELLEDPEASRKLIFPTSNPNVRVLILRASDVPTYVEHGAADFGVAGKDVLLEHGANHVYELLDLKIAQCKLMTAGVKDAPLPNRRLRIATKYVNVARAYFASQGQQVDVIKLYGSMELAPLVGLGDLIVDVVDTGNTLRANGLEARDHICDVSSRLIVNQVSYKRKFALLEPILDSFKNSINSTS
T3 sequence (Q4FTX3 whole entry Y263F): as the sequence (Q4FTX3 whole entry) above, with Y263F counted along it
Description: Replacement of tyrosine for phenylalanine at position 263 of PaHisZ was accomplished by the method of Liu and Naismith,[29] with primers 5′-[…]-3′ and 5′-[…]-3′. Successful mutation was confirmed by DNA sequencing (Eurofins Genomics). Y263F-PaHisZ was expressed and purified by the same protocol reported for wild-type (WT) PaHisZ.[20] ESI/MS analysis of the protein yielded a mass of 43068.9, exactly what would be expected by the loss of a hydroxyl group when compared with the mass of WT-PaHisZ.[20] Y263F-PaHisZ-based PaATPPRT was assayed for catalytic activity under initial rate conditions at 20 °C in the presence of 5.6 mM ATP and 2 mM PRPP and in the presence or absence of 320 μM histidine, along with other reaction components exactly as described for WT-PaATPPRT. Measurements were carried out in duplicate.

PaATPPRT [3] = molecular target: T1, PaATPPRT; assay type: biochemical; details: ADP replacing ATP as substrate, 20 °C
[4] = ATP and histidine (60 μM in syringe) rapidly mixed with PaATPPRT preincubated with PRPP
[5] = ATP rapidly mixed with PaATPPRT preincubated with PRPP and histidine (60 μM in syringe)

T1 sequence (Q4FTX3 whole entry): as the sequence (Q4FTX3 whole entry) above
T1 sequence (Q4FQF7 whole entry): as the sequence (Q4FQF7 whole entry) above

With N[C@@H](Cc1c[nH]cn1)C(=O)O [Histidine, L-histidine] the “amplitude of the burst phase” value (PaATPPRT [1]; [4]) was 3.49 ± 0.01 µM, the steady-state rate (PaATPPRT [1]; [4]) was 7.56 ± 0.01 μM s^–1 and the burst amplitude (PaATPPRT [1]; [5]) was 0.53 ± 0.01 µM. The steady-state rate (PaATPPRT [1]; [5]) was 7.83 ± 0.01 μM s^–1, the Kd (PaHisZ; free PaHisZ 9.4 μM, Tm dependence on histidine 0–8 mM, fit to eq 5, read-out: KD (apparent equilibrium dissociation constant, PaHisZ–histidine complex)) was 2.8 ± 0.8 mM and the “effect on Tm of PaHisZ” value (PaHisZ; free PaHisZ, histidine 0–8 mM) was “increases”. For the same compound, the “sensitivity of PaHisGS to histidine” value (PaHisGS) was “insensitive”, the “h (Hill slope)” value (PaATPPRT [2]; 5.6 mM ATP, 2 mM PRPP, 20 °C, fit to eq 2) was 1.30 ± 0.04 and the “h (Hill slope)” value (PaATPPRT [2]; ADP (5.6 mM) as the substrate, 2 mM PRPP) was 1.32 ± 0.09. It also gave an IC50 (PaATPPRT [2]; IC50, 5.6 mM ATP, 2 mM PRPP, 20 °C, fit to eq 2) of 35.5 ± 0.8 µM, an IC50 (PaATPPRT [2]; IC50, ADP (5.6 mM) as the substrate, 2 mM PRPP) of 31 ± 1 µM and a Ki (PaATPPRT [2]; Kis (slope inhibition constant), against ATP, global fit to eq 3) of 56 ± 25 µM. It also gave a Ki (PaATPPRT [2]; Kis (slope inhibition constant), against PRPP, global fit to eq 3) of 22 ± 6 µM, a Ki (PaATPPRT [2]; Kis, against ATP, linear regression of slope replot of individually fitted double-reciprocal curves) of 60 µM and a Ki (PaATPPRT [2]; Kis, against PRPP, linear regression of slope replot of individually fitted double-reciprocal curves) of 30 µM. The “vi/v0 (ratio of initial rates in presence and absence of inhibitor)” value (PaATPPRT [2]; WT-PaATPPRT, 320 μM histidine, 5.6 mM ATP, 2 mM PRPP, 20 °C) was 0.070 ± 0.004, the “Kii (intercept inhibition constant)” value (PaATPPRT [2]; against ATP, global fit to eq 3) was 36 ± 5 µM and the Kii (PaATPPRT [2]; against ATP) was 40 µM. For the same compound, the “Kii (intercept inhibition constant)” value (PaATPPRT [2]; against PRPP, global fit to eq 3) was 38 ± 7 µM, the Kii (PaATPPRT [2]; against PRPP) was 26 µM and the inhibition mechanism (PaATPPRT [2]; against both substrates (PRPP and ATP)) was “noncompetitive”. For the same compound, the “vi/v0 (ratio of initial rates in presence and absence of inhibitor)” value (Y263F-PaATPPRT; 320 μM histidine, 5.6 mM ATP, 2 mM PRPP, 20 °C) was 0.250 ± 0.001, the “susceptibility to inhibition, Y263F-PaATPPRT less susceptible than WT-PaATPPRT” value (Y263F-PaATPPRT; 320 μM histidine, from vi/v0 of mutant and WT) was greater than 3 fold and the inhibition at 320 µM (Y263F-PaATPPRT; read-out: enzyme activity lost due to histidine inhibition) was 75%.

For Nc1ncnc2c1ncn2[C@@H]1O[C@H](COP(=O)(O)OP(=O)(O)O)[C@@H](O)[C@H]1O [ADP, adenosine 5′-diphosphate], the kcat (PaATPPRT [3]) was 2.6 ± 0.4 s^–1.

For N[C@@H](Cc1cccs1)C(=O)O [TIH, 3-(2-thienyl)-L-alanine], the “effect on PaATPPRT catalysis” value (PaATPPRT [2]; 4 mM TIH, saturating concentrations of both substrates) was “no effect”.
